SMILES strings stand for the structures.

For one assay, the system named is ISC-enriched organoids. Briefly: Secondary (validation) screen, 384-well 2.5-D, ENR+CD 6 days, n=8 wells, vs ENR+CD+DMSO control: basal lysozyme secretion (LYZ.NS). The format is cell-based, murine.
The test system of another assay is Paneth cells. Briefly: Flow cytometry of 3D-cultured intestinal organoids (ENR+CD, 6 days): Paneth cell fraction (lysozyme-positive, CD24-mid). The format is cell-based, murine. The procedure:
Flow cytometry analysis (3D culture). ISC-enriched organoids cultured in 3D Matrigel with ENRCV media were passaged to 24-well plate in 3D Matrigel with ENRCV. At day zero, media were replaced to ENRCD with or without indicated compounds, and media were replaced every other day. […] Flow cytometry was performed using an LSR Fortessa (BD; Koch Institute Flow Cytometry Core at MIT). The data were analyzed using FlowJo v10 software.
Single live cells were selected by several gating strategies and Paneth cells were identified as lysozyme-high, CD24-mid, side scatter-high (SSC-high) (FIG. 27E). […] To evaluate whether the culture media supplements C and D may alter the effects of the 6 hits, Applicants also performed lysozyme assay in the canonical ENR culture condition in 3-D (because Paneth cells exist in an immature state within ENR, Applicants were unable to robustly quantify Paneth cell number via flow cytometry).
(§1) Flow cytometry. ISC-enriched organoids in 3D Matrigel culture were passaged to a 48-well plate and induced differentiation for 6 days by ENR+CD media containing DMSO or each drug indicated in the figures. DMSO- or drug-containing media were changed every other day. […] After vigorous pipetting and incubation at 37° C. for 15 min, the cell solution was diluted twice with basal media and centrifuged at 300 rcf for 3 min. […] The cell solution was centrifuged again at 300 rcf for 3 min at 4° C. to pellet the cells. […] Cells were centrifuged again for 3 min at 300 rcf and blocked with staining buffer (FACS buffer containing 0.5% Tween20 (Sigma, P2287)) for 15 min at RT in the dark. […] Flow cytometry was performed using an LSR Fortessa (BD; Koch Institute Flow Cytometry Core at MIT). Flow cytometry data were analyzed using FlowJo X v10.6.1 software.
Live Paneth cells were identified as LYZ-high, CD24-mid, side scatter-high (SSC-high) (FIG. 50F).
as §1, with “organoids in 3-D Matrigel culture” for “organoids in 3D Matrigel culture”, “to a 24- or 48-well plate” for “to a 48-well plate”
For orientation: In flow cytometry, cells or beads pass a laser one at a time.

Regarding `O=C(/C=C\n1cnc(-c2cc(C(F)(F)F)cc(C(F)(F)F)c2)n1)NNc1cnccn1` [KPT-330], the Z.LYZ.NS with ISC-enriched organoids (Dose 0.02 uM) was −0.038; in the assay on ISC-enriched organoids (Dose 0.04 uM), −0.318; in the assay on ISC-enriched organoids (dose 0.08 uM), 1.132. For the same compound, the figures for the repSSMD.LYZ.NS in the assay on ISC-enriched organoids (Dose 0.02 uM), with ISC-enriched organoids (Dose 0.04 uM) and in the assay with ISC-enriched organoids (dose 0.08 uM) were −0.050, −0.506 and 1.621, respectively. Also, in the assay on ISC-enriched organoids (validated doses, secondary screen), the “increase in LYZ.NS (basal LYZ secretion) relative to ENR+CD control” value is listed as 50-75%. The “enrichment in mature Paneth cells at day 6” value in the assay on Paneth cells (KPT-330 treatment day 0-2 of 6-day ENR+CD differentiation) is recorded as “greatest enrichment in mature Paneth cells”; in the assay with Paneth cells (KPT-330 treatment day 2-4) it was “moderate enrichment”. Moreover, the “enrichment in mature Paneth cells at day 6 (flow cytometry)” value with Paneth cells (KPT-330 treatment day 4-6) was “no different than untreated”. Moreover, the “mature Paneth cell population within organoids” value in the assay on Paneth cells (hit compound at most potent dose from 2.5-D screening, ENR+CD 6 days, 3-D culture, vs control) is reported as “significantly enhanced the mature Paneth cell population”.

For the origin of these results see patent US20230398130A1, “METHODS AND COMPOSITIONS FOR DIFFERENTIATING STEM CELLS” (Massachusetts Institute of Technology, priority 2020, published 2023).
